Experimental data published in ChEMBL document CHEMBL3991601, “The target landscape of clinical kinase drugs” (Science, 2017).
Calls of active or inactive are those of the source. Cut-off read from the data, not from the text of the source, for most assays here: actives have a measured Kd and inactives only a lower limit.

How the values were obtained:
[1] = target: T1, TGF-beta receptor type-1 (Homo sapiens, UniProt P36897)
T1 sequence (P36897 whole entry): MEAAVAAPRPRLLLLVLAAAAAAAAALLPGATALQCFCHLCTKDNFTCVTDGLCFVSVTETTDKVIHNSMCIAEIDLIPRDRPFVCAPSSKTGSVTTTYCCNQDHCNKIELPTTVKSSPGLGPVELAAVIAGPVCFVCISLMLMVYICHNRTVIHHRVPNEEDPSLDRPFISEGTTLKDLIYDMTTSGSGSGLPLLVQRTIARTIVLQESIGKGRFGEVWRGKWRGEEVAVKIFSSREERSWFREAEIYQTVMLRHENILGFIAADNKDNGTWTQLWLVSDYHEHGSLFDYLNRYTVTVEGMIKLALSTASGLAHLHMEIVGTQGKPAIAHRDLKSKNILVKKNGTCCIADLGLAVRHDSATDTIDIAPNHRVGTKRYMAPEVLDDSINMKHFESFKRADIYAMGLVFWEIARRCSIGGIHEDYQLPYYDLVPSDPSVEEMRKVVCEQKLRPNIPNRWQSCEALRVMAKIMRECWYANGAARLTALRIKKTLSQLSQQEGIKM

[2] = target: Dual specificity protein kinase CLK1 (Homo sapiens, UniProt P49759)
[3] = target: T2, Ephrin type-A receptor 1 (Homo sapiens, UniProt P21709)
T2 sequence (P21709 whole entry): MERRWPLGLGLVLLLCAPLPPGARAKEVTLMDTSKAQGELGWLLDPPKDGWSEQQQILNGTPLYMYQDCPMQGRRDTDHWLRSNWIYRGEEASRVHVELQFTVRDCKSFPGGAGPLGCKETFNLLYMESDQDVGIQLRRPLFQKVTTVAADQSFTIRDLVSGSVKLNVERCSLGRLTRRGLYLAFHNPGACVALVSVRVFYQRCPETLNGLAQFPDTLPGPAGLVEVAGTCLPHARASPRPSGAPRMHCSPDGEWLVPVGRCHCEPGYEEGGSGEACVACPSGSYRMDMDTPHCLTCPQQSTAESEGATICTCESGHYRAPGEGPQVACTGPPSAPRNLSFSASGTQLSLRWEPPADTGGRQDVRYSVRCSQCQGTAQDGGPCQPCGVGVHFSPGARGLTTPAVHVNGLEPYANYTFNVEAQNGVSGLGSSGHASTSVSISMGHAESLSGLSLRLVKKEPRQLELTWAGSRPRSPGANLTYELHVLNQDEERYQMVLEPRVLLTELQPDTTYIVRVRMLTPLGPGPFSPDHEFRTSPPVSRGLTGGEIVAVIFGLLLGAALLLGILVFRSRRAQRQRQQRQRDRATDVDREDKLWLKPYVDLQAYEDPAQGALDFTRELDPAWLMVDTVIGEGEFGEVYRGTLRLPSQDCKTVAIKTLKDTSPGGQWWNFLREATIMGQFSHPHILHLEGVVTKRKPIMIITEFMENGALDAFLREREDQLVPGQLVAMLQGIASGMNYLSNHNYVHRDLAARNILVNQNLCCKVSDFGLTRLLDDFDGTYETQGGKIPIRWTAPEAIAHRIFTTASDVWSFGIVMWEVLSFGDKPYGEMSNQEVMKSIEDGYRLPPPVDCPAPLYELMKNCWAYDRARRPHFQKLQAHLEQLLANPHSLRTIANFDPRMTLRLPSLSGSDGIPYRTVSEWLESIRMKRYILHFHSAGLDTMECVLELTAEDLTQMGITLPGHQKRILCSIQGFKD

[4] = target: T3, Serine/threonine-protein kinase TAO2 (Homo sapiens, UniProt Q9UL54)
T3 sequence (Q9UL54 whole entry): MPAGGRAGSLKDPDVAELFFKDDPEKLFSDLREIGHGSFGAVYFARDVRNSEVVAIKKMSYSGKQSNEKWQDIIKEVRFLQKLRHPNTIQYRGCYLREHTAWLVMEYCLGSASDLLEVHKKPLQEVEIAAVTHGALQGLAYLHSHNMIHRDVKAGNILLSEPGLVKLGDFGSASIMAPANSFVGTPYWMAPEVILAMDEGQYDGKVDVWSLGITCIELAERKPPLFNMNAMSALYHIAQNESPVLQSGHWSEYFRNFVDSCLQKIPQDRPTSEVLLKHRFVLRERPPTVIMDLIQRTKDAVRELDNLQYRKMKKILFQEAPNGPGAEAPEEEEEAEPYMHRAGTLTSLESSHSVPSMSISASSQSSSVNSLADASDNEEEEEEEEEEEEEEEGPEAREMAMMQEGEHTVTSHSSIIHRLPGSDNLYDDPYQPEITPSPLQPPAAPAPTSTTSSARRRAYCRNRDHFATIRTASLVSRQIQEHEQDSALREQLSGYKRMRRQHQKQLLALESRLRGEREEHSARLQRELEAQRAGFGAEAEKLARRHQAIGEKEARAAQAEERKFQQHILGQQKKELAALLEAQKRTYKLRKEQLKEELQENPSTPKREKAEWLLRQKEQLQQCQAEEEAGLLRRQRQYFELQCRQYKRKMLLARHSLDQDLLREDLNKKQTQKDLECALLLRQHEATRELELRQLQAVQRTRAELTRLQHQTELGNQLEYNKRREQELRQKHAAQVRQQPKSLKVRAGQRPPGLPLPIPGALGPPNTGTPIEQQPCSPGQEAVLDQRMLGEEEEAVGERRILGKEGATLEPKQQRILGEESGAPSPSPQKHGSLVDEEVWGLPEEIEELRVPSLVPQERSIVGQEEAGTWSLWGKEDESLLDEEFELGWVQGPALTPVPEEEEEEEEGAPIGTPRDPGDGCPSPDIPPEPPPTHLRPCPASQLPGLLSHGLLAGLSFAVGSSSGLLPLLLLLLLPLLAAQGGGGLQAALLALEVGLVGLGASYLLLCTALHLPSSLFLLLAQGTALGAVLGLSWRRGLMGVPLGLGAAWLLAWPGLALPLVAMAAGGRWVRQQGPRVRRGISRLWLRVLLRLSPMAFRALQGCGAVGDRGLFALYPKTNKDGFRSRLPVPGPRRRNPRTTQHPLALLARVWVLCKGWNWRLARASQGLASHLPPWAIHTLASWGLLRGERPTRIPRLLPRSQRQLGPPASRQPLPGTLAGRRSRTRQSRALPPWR

[5] = target: Serine/threonine-protein kinase MRCK gamma (Homo sapiens, UniProt Q6DT37)
[6] = target: Calcium/calmodulin-dependent protein kinase type II subunit gamma (Homo sapiens, UniProt Q13555)
Note: in the data inactive means no Kd found up to 30 µM.

Sequence of Serine/threonine-protein kinase MRCK gamma (Q6DT37 whole entry): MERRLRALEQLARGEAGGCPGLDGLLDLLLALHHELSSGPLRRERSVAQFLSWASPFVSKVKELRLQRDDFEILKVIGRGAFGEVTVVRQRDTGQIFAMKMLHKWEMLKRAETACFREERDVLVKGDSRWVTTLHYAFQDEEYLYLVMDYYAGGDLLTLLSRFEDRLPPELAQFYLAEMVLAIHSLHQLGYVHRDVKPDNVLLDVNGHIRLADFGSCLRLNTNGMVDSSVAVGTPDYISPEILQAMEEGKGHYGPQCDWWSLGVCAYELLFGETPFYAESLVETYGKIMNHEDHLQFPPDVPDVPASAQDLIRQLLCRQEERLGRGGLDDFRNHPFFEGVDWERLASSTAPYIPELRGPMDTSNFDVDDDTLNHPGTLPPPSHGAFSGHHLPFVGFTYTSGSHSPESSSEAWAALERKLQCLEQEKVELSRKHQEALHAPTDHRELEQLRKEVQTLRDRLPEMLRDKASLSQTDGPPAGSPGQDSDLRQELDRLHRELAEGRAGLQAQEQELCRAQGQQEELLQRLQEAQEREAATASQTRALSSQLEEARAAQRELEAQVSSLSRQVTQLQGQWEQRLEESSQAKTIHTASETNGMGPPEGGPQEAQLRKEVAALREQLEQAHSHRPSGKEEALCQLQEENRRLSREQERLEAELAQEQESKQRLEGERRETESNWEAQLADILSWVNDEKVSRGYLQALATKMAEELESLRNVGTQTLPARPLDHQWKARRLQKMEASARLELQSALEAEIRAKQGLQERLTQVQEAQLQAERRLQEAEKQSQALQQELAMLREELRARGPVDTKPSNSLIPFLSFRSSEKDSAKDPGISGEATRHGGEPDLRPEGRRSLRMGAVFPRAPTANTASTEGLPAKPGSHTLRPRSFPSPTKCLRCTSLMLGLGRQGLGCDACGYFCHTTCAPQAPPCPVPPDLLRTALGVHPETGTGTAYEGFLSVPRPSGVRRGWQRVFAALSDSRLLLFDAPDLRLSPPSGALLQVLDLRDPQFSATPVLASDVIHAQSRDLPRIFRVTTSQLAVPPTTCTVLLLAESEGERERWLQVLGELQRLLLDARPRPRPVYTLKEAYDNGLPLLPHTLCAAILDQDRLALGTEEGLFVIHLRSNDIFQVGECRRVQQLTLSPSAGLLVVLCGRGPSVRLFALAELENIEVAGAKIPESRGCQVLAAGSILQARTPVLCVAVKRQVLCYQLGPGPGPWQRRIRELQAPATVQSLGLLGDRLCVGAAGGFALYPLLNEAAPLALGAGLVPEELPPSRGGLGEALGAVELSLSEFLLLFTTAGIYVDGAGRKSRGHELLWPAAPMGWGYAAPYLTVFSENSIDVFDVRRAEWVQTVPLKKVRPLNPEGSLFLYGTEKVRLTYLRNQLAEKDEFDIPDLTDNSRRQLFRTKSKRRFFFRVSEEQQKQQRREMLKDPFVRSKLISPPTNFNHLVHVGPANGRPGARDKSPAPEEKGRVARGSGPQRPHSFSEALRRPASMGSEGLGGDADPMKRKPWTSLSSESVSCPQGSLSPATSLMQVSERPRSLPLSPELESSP
Sequence of Dual specificity protein kinase CLK1 (P49759 whole entry): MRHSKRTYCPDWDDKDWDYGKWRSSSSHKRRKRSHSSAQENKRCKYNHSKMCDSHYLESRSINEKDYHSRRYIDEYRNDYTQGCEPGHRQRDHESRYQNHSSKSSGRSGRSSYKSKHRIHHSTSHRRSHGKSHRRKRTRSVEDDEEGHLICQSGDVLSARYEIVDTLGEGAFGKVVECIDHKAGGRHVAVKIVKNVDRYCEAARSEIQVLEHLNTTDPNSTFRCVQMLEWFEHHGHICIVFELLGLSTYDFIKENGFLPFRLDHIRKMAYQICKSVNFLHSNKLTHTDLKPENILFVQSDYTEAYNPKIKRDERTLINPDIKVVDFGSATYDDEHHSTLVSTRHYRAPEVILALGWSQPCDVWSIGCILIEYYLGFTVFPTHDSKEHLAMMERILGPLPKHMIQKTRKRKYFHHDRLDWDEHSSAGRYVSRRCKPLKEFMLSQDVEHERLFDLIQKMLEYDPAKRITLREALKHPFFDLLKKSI
Sequence of Calcium/calmodulin-dependent protein kinase type II subunit gamma (Q13555 whole entry): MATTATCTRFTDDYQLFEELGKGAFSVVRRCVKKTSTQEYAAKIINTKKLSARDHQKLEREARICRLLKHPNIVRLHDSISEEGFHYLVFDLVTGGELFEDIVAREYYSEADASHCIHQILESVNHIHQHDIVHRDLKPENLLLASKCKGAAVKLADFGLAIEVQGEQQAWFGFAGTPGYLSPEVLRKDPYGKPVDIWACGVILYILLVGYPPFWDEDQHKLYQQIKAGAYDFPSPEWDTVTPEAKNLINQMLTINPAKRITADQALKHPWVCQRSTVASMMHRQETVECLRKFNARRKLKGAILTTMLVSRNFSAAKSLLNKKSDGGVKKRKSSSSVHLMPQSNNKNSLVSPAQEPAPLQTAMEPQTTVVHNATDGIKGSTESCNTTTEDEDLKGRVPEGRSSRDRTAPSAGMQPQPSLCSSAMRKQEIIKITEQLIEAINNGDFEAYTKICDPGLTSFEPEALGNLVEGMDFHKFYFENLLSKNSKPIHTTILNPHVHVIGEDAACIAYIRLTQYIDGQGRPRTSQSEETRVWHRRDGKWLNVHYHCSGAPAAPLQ

Structure (SMILES)	Kd [1]	Kd [2]	Kd [3]	Kd [4]	Kd [5]	Kd [6]
CO[C@H]1C[C@@H]2CC[C@@H](C)[C@@](O)(O2)C(=O)C(=O)N2CCCC[C@H]2C(=O)O[C@H]([C@H](C)C[C@@H]2CC[C@@H](O)[C@H](OC)C2)CC(=O)[C@H](C)/C=C(\C)[C@@H](O)[C@@H](OC)C(=O)[C@H](C)C[C@H](C)/C=C/C=C/C=C/1C [SIROLIMUS]	> 30 µM (inactive)	> 30 µM (inactive)	> 30 µM (inactive)	> 30 µM (inactive)	> 30 µM (inactive)	> 30 µM (inactive)
CCS(=O)(=O)c1cccc(-c2cc(C(=O)NC3CCN(C)CC3)c(C)c3[nH]c4ncc(C)cc4c23)c1 [TAK-901]	0.197 µM (active)	> 30 µM (inactive)	> 30 µM (inactive)	> 30 µM (inactive)	> 30 µM (inactive)	> 30 µM (inactive)
CO[C@H]1C[C@@H]2CC[C@@H](C)[C@@](O)(O2)C(=O)C(=O)N2CCCC[C@H]2C(=O)O[C@H]([C@H](C)C[C@@H]2CC[C@@H](OC(=O)C(C)(CO)CO)[C@H](OC)C2)CC(=O)[C@H](C)/C=C(\C)[C@@H](O)[C@@H](OC)C(=O)[C@H](C)C[C@H](C)/C=C/C=C/C=C/1C [TEMSIROLIMUS]	> 30 µM (inactive)	> 30 µM (inactive)	> 30 µM (inactive)	> 30 µM (inactive)	> 30 µM (inactive)	> 30 µM (inactive)
COc1cc2c(Nc3ccc(Cl)c(Cl)c3F)ncnc2cc1OC[C@@H]1C[C@@H]2CN(C)C[C@@H]2C1 [TESEVATINIB]	3.32 µM (active)	> 30 µM (inactive)	0.008 µM (active)	> 30 µM (inactive)	> 30 µM (inactive)	> 30 µM (inactive)
O=C(Cc1ccc(-c2ccc(OCCN3CCOCC3)cc2)cn1)NCc1ccccc1 [TIRBANIBULIN]	> 30 µM (inactive)	> 30 µM (inactive)	> 30 µM (inactive)	> 30 µM (inactive)	> 30 µM (inactive)	> 30 µM (inactive)
C[C@@H](NC(=O)c1ncnc(N)c1Cl)c1ncc(C(=O)Nc2cc(C(F)(F)F)c(Cl)cn2)s1 [TOVORAFENIB]	> 30 µM (inactive)	0.942 µM (active)	1.07 µM	> 30 µM (inactive)	> 30 µM (inactive)	> 30 µM (inactive)
CN1C/C=C/CCOc2cccc(c2)-c2ccnc(n2)Nc2cccc(c2)C1 [ZOTIRACICLIB]	> 30 µM (inactive)	> 30 µM (inactive)	> 30 µM (inactive)	1.07 µM (active)	> 30 µM (inactive)	> 30 µM (inactive)
